Measured values reported in PubChem BioAssay AID330 (DTP/NCI, 2004).
Several values for one entry are separate records, joined by “and”; a condition that tells them apart may be missing. Identical values can stand only once. Toxic doses and inconclusive results are not listed.

Test system: P388 leukemia ip, CD2F1 mice, survival T/C
Assay: NCI In Vivo Anticancer Drug Screen. Data for tumor model P388 Leukemia (intraperitoneal) in CD2F1 (CDF1) mice
Settings: endpoint: median survival time, higher = longer survival
Procedure, shortened: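 Mice carrying the transplanted tumor received test compound or vehicle. Survival was recorded in each group, and the value is the treated-group measurement divided by that of the vehicle-treated control group.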

[1] = dose: 50.0 mg/kg/injection, schedule: Q01DX009 (ip), vehicle: saline
[2] = dose: 100.0 mg/kg/injection, schedule: Q01DX009 (ip), vehicle: saline
[3] = dose: 50.0 mg/kg/injection, schedule: Q01DX005 (ip), vehicle: Klucel (hydroxypropylcellulose) (HPC)
[4] = dose: 100.0 mg/kg/injection, schedule: Q01DX005 (ip), vehicle: Klucel (hydroxypropylcellulose) (HPC)
[5] = dose: 200.0 mg/kg/injection, schedule: Q01DX005 (ip), vehicle: Klucel (hydroxypropylcellulose) (HPC)
[6] = dose: 50.0 mg/kg/injection, schedule: Q01DX009 (ip), vehicle: saline with Tween-80
[7] = dose: 100.0 mg/kg/injection, schedule: Q01DX009 (ip), vehicle: saline with Tween-80
[8] = dose: 60.0 mg/kg/injection, schedule: Q01DX005 (ip), vehicle: saline with Tween-80
[9] = dose: 120.0 mg/kg/injection, schedule: Q01DX005 (ip), vehicle: saline with Tween-80
[10] = dose: 240.0 mg/kg/injection, schedule: Q01DX005 (ip), vehicle: saline with Tween-80

CN1CCN(c2ccncc2S(=O)(=O)N2CCOCC2)CC1
T/C [1]: 97 % of control | T/C [2]: 95 % of control

Cc1cc(C)c(C#N)c(SC(C(=O)Nc2cc(C(F)(F)F)ccc2Cl)c2ccccc2)n1 (stereo not drawn)
T/C (dose: 12.5 mg/kg/injection, schedule: Q01DX005 (ip), vehicle: Klucel (hydroxypropylcellulose) (HPC)): 90 % of control | T/C (dose: 25.0 mg/kg/injection, schedule: Q01DX005 (ip), vehicle: Klucel (hydroxypropylcellulose) (HPC)): 89 % of control | T/C [3]: 89 % of control and 90 % of control | T/C [4]: 105 % of control | T/C [5]: 105 % of control

O=S(=O)(Nc1ccc(Cl)c(C(F)(F)F)c1)c1ccc(F)cc1
T/C (dose: 50.0 mg/kg/injection, schedule: Q01DX005 (ip), vehicle: saline with Tween-80): 100 % of control | T/C (dose: 100.0 mg/kg/injection, schedule: Q01DX005 (ip), vehicle: saline with Tween-80): 91 % of control | T/C (dose: 200.0 mg/kg/injection, schedule: Q01DX005 (ip), vehicle: saline with Tween-80): 98 % of control

CCN(CC)C(=O)C1CCCCN1Cc1c[nH]c2ccccc12 (stereo not drawn)
T/C (dose: 12.5 mg/kg/injection, schedule: Q01DX009 (ip), vehicle: saline with Tween-80): 104 % of control | T/C (dose: 25.0 mg/kg/injection, schedule: Q01DX009 (ip), vehicle: saline with Tween-80): 109 % of control | T/C [6]: 101 % of control | T/C [7]: 99 % of control

COC1/C=C/C=C(/C)Cc2cc(O)c(Cl)c(c2)N(C)C(=O)CC(OC(=O)C(C)C)C2(C)OC2C(C)C2CC1(O)NC(=O)O2 (stereo not drawn)
T/C (dose: 50.0 micrograms/kg/injection, schedule: Q01DX009 (ip), vehicle: saline + alcohol): 153 % of control | T/C (dose: 100.0 micrograms/kg/injection, schedule: Q01DX009 (ip), vehicle: saline + alcohol): 177 % of control and 190 % of control | T/C (dose: 200.0 micrograms/kg/injection, schedule: Q01DX009 (ip), vehicle: saline + alcohol): 185 % of control and 221 % of control | T/C (dose: 400.0 micrograms/kg/injection, schedule: Q01DX009 (ip), vehicle: saline + alcohol): 177 % of control and 230 % of control | T/C (dose: 800.0 micrograms/kg/injection, schedule: Q01DX009 (ip), vehicle: saline + alcohol): 192 % of control and 205 % of control | T/C (dose: 1000.0 micrograms/kg/injection, schedule: Q01DX009 (ip), vehicle: saline + alcohol): 182 % of control

CCOC(=O)N1C=CC(c2ccccc2)=CC2ON=C(c3c(C)cc(C)cc3C)N21 (stereo not drawn)
T/C [1]: 106 % of control | T/C [2]: 108 % of control | T/C (dose: 200.0 mg/kg/injection, schedule: Q01DX009 (ip), vehicle: saline): 99 % of control

C[C@H]1C(=O)NC(=O)[C@@H]1C
T/C (dose: 50.0 mg/kg/injection, schedule: Q01DX005 (ip), vehicle: saline): 106 % of control | T/C (dose: 100.0 mg/kg/injection, schedule: Q01DX005 (ip), vehicle: saline): 100 % of control | T/C (dose: 200.0 mg/kg/injection, schedule: Q01DX005 (ip), vehicle: saline): 103 % of control

COc1ccc(-c2cn3c([nH]c(=O)c4cc(Br)ccc43)c2C#N)cc1
T/C [8]: 91 % of control | T/C [9]: 93 % of control | T/C [10]: 87 % of control

CC(=O)/C=N/OC(=O)c1ccccc1
T/C (dose: 100.0 mg/kg/injection, schedule: Q04DX002 (ip), vehicle: saline with Tween-80): 104 % of control | T/C (dose: 200.0 mg/kg/injection, schedule: Q04DX002 (ip), vehicle: saline with Tween-80): 99 % of control

N#CC1=CCc2ccccc2N1C(=O)Oc1ccccc1
T/C [8]: 97 % of control | T/C [9]: 88 % of control | T/C [10]: 88 % of control

CCCSCC(C)C
T/C [6]: 100 % of control | T/C [7]: 100 % of control | T/C (dose: 200.0 mg/kg/injection, schedule: Q01DX009 (ip), vehicle: saline with Tween-80): 109 % of control

Cc1nc2c(cnn2C)c(=O)n1C(C)C
T/C [3]: 104 % of control | T/C [4]: 112 % of control | T/C [5]: 111 % of control

COc1ccc(/C=N/N2CN(C(C)C(=O)O)P(N(CCO)CCO)N=C2N)cc1OC (stereo not drawn)
T/C [8]: 104 % of control | T/C [9]: 99 % of control | T/C [10]: 99 % of control

CCOC(=O)c1c(C#N)c2cnn(-c3ccccc3)c2n2cccc12
T/C (dose: 15.0 mg/kg/injection, schedule: Q01DX005 (ip), vehicle: saline with Tween-80): 98 % of control | T/C (dose: 30.0 mg/kg/injection, schedule: Q01DX005 (ip), vehicle: saline with Tween-80): 96 % of control | T/C [8]: 86 % of control and 91 % of control

CCCCCCCCCCCCCCCCON
T/C (dose: 50.0 mg/kg/injection, schedule: Q01DX009 (ip), vehicle: Klucel (hydroxypropylcellulose) (HPC)): 103 % of control | T/C (dose: 100.0 mg/kg/injection, schedule: Q01DX009 (ip), vehicle: Klucel (hydroxypropylcellulose) (HPC)): 111 % of control
